Measurements: patent US8383139B2 (Bayer CropScience AG, priority 2008, dated 2013)

experiment: log P by HPLC on reversed-phase columns (C 18), EEC Directive 79/831 Annex V.A8; type: physicochemical; conditions: [a] HPLC, acid region pH 2.3, 0.1% aqueous phosphoric acid and acetonitrile

Compound	log p
Cc1cc(Oc2nc(Cc3ccc(Cl)cc3)ns2)c(C)cc1N=CN(C)CC(F)F [Example 53]	2.18^[a]
CCN(C)C=Nc1cc(C)c(Oc2nc(Cc3ccc(F)c(F)c3)ns2)cc1C [Example 54]	1.86^[a]
Cc1cc(Oc2nc(Cc3ccc(F)cc3F)ns2)c(C)cc1N=CN1CCCCC1 [Example 55]	2.02^[a]
CCN(C)C=Nc1cc(C)c(Oc2nc(Cc3ccc(OC(F)(F)F)cc3)ns2)cc1C [Example 56]	2.21^[a]
Cc1cc(Oc2nc(Cc3ccc(F)cc3)ns2)c(C)cc1N=CN1CCCCC1 [Example 57]	2.05^[a]
Cc1cc(Oc2nc(Cc3ccc(OC(F)(F)F)cc3)ns2)c(C)cc1N=CN1CCCCC1 [Example 58]	2.71^[a]
Cc1cc(Oc2nc(Cc3cccc(Br)c3)ns2)c(C)cc1N=CN1CCCCC1 [Example 59]	2.23^[a]
CCN(C)C=Nc1cc(C)c(Oc2nc(Cc3ccc(F)cc3)ns2)cc1C [Example 60]	1.74^[a]
CCN(C)C=Nc1cc(C)c(Oc2nc(Cc3ccccc3Cl)ns2)cc1C [Example 61]	1.97^[a]
Cc1cc(Oc2nc(Cc3ccccc3Cl)ns2)c(C)cc1N=CN1CCCCC1 [Example 62]	2.43^[a]
Cc1cc(Oc2nc(Cc3ccc(F)c(F)c3)ns2)c(C)cc1N=CN1CCCCC1 [Example 63]	2.39^[a]
CCN(C)C=Nc1cc(C)c(Oc2nc(Cc3ccc([N+](=O)[O-])cc3)ns2)cc1C [Example 64]	2.11^[a]
CCN(C)C=Nc1cc(C)c(Oc2nc(Cc3cccc(Br)c3)ns2)cc1C [Example 65]	2.38^[a]
CCN(C)C=Nc1cc(C)c(Oc2nc(Cc3cc(F)ccc3F)ns2)cc1C [Example 67]	1.66^[a]
Cc1ccccc1Cc1nsc(Oc2cc(C)c(N=CN3CCCCC3)cc2C)n1 [Example 68]	2.06^[a]
CCN(C)C=Nc1cc(C)c(Oc2nc(Cc3ccc(C#N)cc3)ns2)cc1C [Example 69]	1.63^[a]
Cc1cc(Oc2nc(Cc3ccc(-c4ccccc4)cc3)ns2)c(C)cc1N=CN1CCCCC1 [Example 70]	2.45^[a]
CCN(C)C=Nc1cc(C)c(Oc2nc(Cc3ccc(C(F)(F)F)cc3)ns2)cc1C [Example 71]	2.29^[a]
CCN(C)C=Nc1cc(C)c(Oc2nc(Cc3ccccc3C)ns2)cc1C [Example 72]	1.89^[a]
CCN(C)C=Nc1cc(C)c(Oc2nc(Cc3ccc(-c4ccccc4)cc3)ns2)cc1C [Example 73]	2.8^[a]
CCN(C)C=Nc1cc(C)c(Oc2nc(Cc3c(F)cccc3Cl)ns2)cc1C [Example 74]	2.33^[a]
CCN(C)C=Nc1cc(C)c(Oc2nc(Cc3ccc(OC)cc3)ns2)cc1C [Example 75]	2.98^[a]
COc1ccc(Cc2nsc(Oc3cc(C)c(N=CN4CCCCC4)cc3C)n2)cc1 [Example 76]	1.9^[a]
Cc1cc(Oc2nc(Cc3c(F)cccc3Cl)ns2)c(C)cc1N=CN1CCCCC1 [Example 77]	2.12^[a]
CCN(C)C=Nc1cc(C)c(Oc2nc(Cc3cccc(F)c3)ns2)cc1C [Example 78]	1.87^[a]
Cc1cc(Oc2nc(Cc3ccc(C(F)(F)F)cc3)ns2)c(C)cc1N=CN1CCCCC1 [Example 79]	2.66^[a]
CCN(C)C=Nc1cc(C)c(Oc2nc(Cc3ccc(Oc4ccccc4)cc3)ns2)cc1C [Example 80]	2.72^[a]
Cc1cc(Oc2nc(Cc3cccc(F)c3)ns2)c(C)cc1N=CN1CCCCC1 [Example 81]	2.25^[a]
Cc1cc(Oc2nc(Cc3ccc(C#N)cc3)ns2)c(C)cc1N=CN1CCCCC1 [Example 82]	2.06^[a]

The next lines start with the values.

log p	Compound
2.79^[a]	Cc1ccc(Br)cc1Cc1nsc(Oc2cc(C)c(N=CN3CCCCC3)cc2C)n1 [Example 83]
2.4^[a]	Cc1cc(Oc2nc(Cc3cc(F)ccc3F)ns2)c(C)cc1N=CN1CCCCC1 [Example 84]
2.85^[a]	Cc1cc(Oc2nc(Cc3ccc(Oc4ccccc4)cc3)ns2)c(C)cc1N=CN1CCCCC1 [Example 85]
2.6^[a]	Cc1cc(Oc2nc(Cc3c(Cl)cccc3Cl)ns2)c(C)cc1N=CN1CCCCC1 [Example 86]
2.17^[a]	COc1cccc(Cc2nsc(Oc3cc(C)c(N=CN4CCCCC4)cc3C)n2)c1 [Example 87]
2.67^[a]	Cc1cc(Oc2nc(Cc3ccc(SC(F)(F)F)cc3)ns2)c(C)cc1N=CN1CCCCC1 [Example 88]
2.06^[a]	CCOc1ccc(Cc2nsc(Oc3cc(C)c(N=CN(C)CC)cc3C)n2)cc1 [Example 89]
2.23^[a]	CCOc1ccc(Cc2nsc(Oc3cc(C)c(N=CN4CCCCC4)cc3C)n2)cc1 [Example 90]
2.44^[a]	Cc1cc(Oc2nc(Cc3ccc(F)c(C(F)(F)F)c3)ns2)c(C)cc1N=CN1CCCCC1 [Example 91]
2.43^[a]	Cc1cc(Oc2nc(Cc3ccc4ccccc4c3)ns2)c(C)cc1N=CN1CCCCC1 [Example 92]
2.38^[a]	Cc1cc(Oc2nc(Cc3cccc(Cl)c3Cl)ns2)c(C)cc1N=CN1CCCCC1 [Example 93]
2.24^[a]	CCN(C)C=Nc1cc(C)c(Oc2nc(Cc3ccc(F)c(C(F)(F)F)c3)ns2)cc1C [Example 94]
2.51^[a]	CCN(C)C=Nc1cc(Cl)c(Oc2nc(Cc3ccc(SC(F)(F)F)cc3)ns2)cc1C [Example 95]
2.21^[a]	CCN(C)C=Nc1cc(C)c(Oc2nc(Cc3cccc(Cl)c3Cl)ns2)cc1C [Example 96]
2.22^[a]	CCN(C)C=Nc1cc(C)c(Oc2nc(Cc3ccc4ccccc4c3)ns2)cc1C [Example 97]
2.36^[a]	Cc1cc(Oc2nc(Cc3ccccc3Br)ns2)c(C)cc1N=CN1CCCCC1 [Example 98]
2.12^[a]	CCN(C)C=Nc1cc(C)c(Oc2nc(Cc3ccccc3F)ns2)cc1C [Example 99]
2.32^[a]	CCN(C)C=Nc1cc(C)c(Oc2nc(Cc3ccccc3Br)ns2)cc1C [Example 100]
2.85^[a]	CCOCC(NC=Nc1cc(C)c(Oc2nc(Cc3ccc(OC(F)(F)F)cc3)ns2)cc1C)C1CC1 (stereo not shown) [Example 101]

log p	Compound
2.78^[a]	CCN(C)C=Nc1cc(C)c(Oc2nc(Cc3ccc(SC(F)(F)F)cc3)ns2)cc1C [Example 102]
2.44^[a]	Cc1ccc(Cc2nsc(Oc3cc(C)c(N=CN4CCCCC4)cc3C)n2)c([N+](=O)[O-])c1 [Example 103]
2.27^[a]	Cc1cc(Oc2nc(Cc3ccccc3F)ns2)c(C)cc1N=CN1CCCCC1 [Example 104]
2.1^[a]	CCN(C)C=Nc1cc(C)c(Oc2nc(Cc3c(F)cc(F)cc3F)ns2)cc1C [Example 105]
2.07^[a]	CCN(C)C=Nc1cc(C)c(Oc2nc(Cc3ccccc3[N+](=O)[O-])ns2)cc1C [Example 106]
2.37^[a]	Cc1cc(Oc2nc(Cc3ccc4ccccc4c3)ns2)c(C)cc1N=CN1CCCCC1 [Example 107]
2.93^[a]	CCN(C)C=Nc1cc(C(C)C)c(Oc2nc(Cc3ccc(Cl)cc3Cl)ns2)cc1C [Example 108]
2.71^[a]	CCN(C)C=Nc1cc(C(C)C)c(Oc2nc(Cc3ccc(Cl)cc3)ns2)cc1C [Example 109]
2.41^[a]	CCN(C)C=Nc1cc(C(C)C)c(Oc2nc(Cc3ccc(F)cc3)ns2)cc1C [Example 110]
2.75^[a]	CCN(C)C=Nc1cc(C(C)C)c(Oc2nc(Cc3ccc(Br)cc3)ns2)cc1C [Example 111]
2.24^[a]	CCN(C)C=Nc1cc(C)c(Oc2nc(Cc3ccc4ccccc4c3)ns2)cc1C [Example 112]
2.28^[a]	CCN(C)C=Nc1cc(C)c(Oc2nc(Cc3cccc(C)c3)ns2)cc1C [Example 113]
2.44^[a]	Cc1cccc(Cc2nsc(Oc3cc(C)c(N=CN4CCCCC4)cc3C)n2)c1 [Example 114]
2.76^[a]	Cc1cc(F)c(Br)cc1Cc1nsc(Oc2cc(C)c(N=CN3CCCCC3)cc2C)n1 [Example 115]
2.57^[a]	CCN(C)C=Nc1cc(C)c(Oc2nc(Cc3cc(Br)c(F)cc3C)ns2)cc1C [Example 116]
2.33^[a]	Cc1cc(Oc2nc(Cc3c(F)cc(F)cc3F)ns2)c(C)cc1N=CN1CCCCC1 [Example 117]
2.16^[a]	Cc1cc(Oc2nc(Cc3ccccc3[N+](=O)[O-])ns2)c(C)cc1N=CN1CCCCC1 [Example 121]
2.49^[a]	Cc1ccc(Cc2nsc(Oc3cc(C)c(N=CN4CCCCC4)cc3C)n2)cc1 [Example 122]

same assay, conditions: [b] LC-MS, acid region pH 2.7, 0.1% aqueous formic acid and acetonitrile

Compound	log p
CCN(C)C=Nc1cc(Cl)c(Oc2nc(Cc3ccc(Cl)cc3Cl)ns2)cc1C [Example 118]	2.42^[b]
CCN(C)C=Nc1cc(Cl)c(Oc2nc(Cc3ccc(Br)cc3)ns2)cc1C [Example 119]	2.26^[b]
CCN(C)C=Nc1cc(C)c(Oc2nc(Cc3ccc(C)cc3)ns2)cc1C [Example 120]	2.12^[b]
Cc1cc(Oc2nc(Cc3ccc(Cl)cc3)ns2)c(C)cc1N=CN(C)C1CC1 [Example 123]	2.06^[b]
CCOCC(C1CC1)N(C)C=Nc1cc(C)c(Oc2nc(Cc3ccc(Cl)cc3)ns2)cc1C (stereo not shown) [Example 124]	2.56^[b]

same assay, conditions: pH 2.3, given in synthesis examples; read-out: log P (pH2.3)

Compound	chromatographic logP
O=c1oc(C2(c3ccc(Cl)cc3)CC2)ns1	3.59

same assay, conditions: reversed-phase C18 HPLC column, pH 2.3, [a] HPLC, acid region pH 2.3, 0.1% aqueous phosphoric acid and acetonitrile; read-out: log p

Compound	chromatographic logP
Cc1cc(Oc2nc(C(C)c3ccc(Cl)cc3)ns2)c(Cl)cc1N=CN1CCCCC1 (stereo not shown) [Example 21, 5-chloro-4-({3-[1-(4-chlorophenyl)ethyl]-1,2,4-thiadiazol-5-yl}oxy)-2-methyl-N-(piperidin-1-ylmethylidene)aniline]	2.67

same assay, conditions: reversed-phase C18 HPLC column, pH 2.3, pH 2.3, given in synthesis examples; read-out: log P (pH2.3)

Compound	chromatographic logP
Cc1ccc(S(=O)(=O)c2nc(C3(c4ccc(Cl)cc4)CC3)ns2)cc1 [3-[1-(4-Chlorophenyl)cyclopropyl]-5-[(4-methylphenyl)sulphonyl]-1,2,4-thiadiazole]	4.97
Cc1cc(Oc2nc(C3(c4ccc(Cl)cc4)CC3)ns2)c(C)cc1N [4-({3-[1-(4-Chlorophenyl)cyclopropyl]-1,2,4-thiadiazol-5-yl}oxy)-2,5-dimethylaniline]	4.44
Cc1cc(Oc2nc(Cc3cccc(Cl)c3)ns2)c(C)cc1N [4-{[3-(3-Chlorobenzyl)-1,2,4-thiadiazol-5-yl]oxy}-2,5-dimethylaniline]	3.68
